Source: patent US9822137B2, “Phosphonucleosides useful in the treatment of viral disorders” (UNIVERSITY COLLEGE CORK, priority 2012, dated 2017)
≈ marks a conversion by molar mass, not a printed value. Structures can show the parent of a compound that is named as a salt. Where two headings read alike, the source gives them in different places.

Tests used:
[1] = molecular target: HIV-1 reverse transcriptase (Human immunodeficiency virus type 1 group M subtype B, UniProt P04585); experiment: cell-free HIV-1 RT assay with artificial homopolymeric template/primer and [3H]dNTP; format: biochemical; conditions: for inhibition of incorporation of [3H]dATP in poly rU/oligo dA / inhibition of incorporation of [3H]dCTP in poly rI/oligo dC: 11a and 11b at 200 μg/mL
Description: To prepare the template/primers for the RT experiments, 0.15 mM poly(U), poly(A), and poly(I) were mixed with an equal volume of 0.0375 mM oligo(dA), oligo(dT), and oligo(dC), respectively. The final concentrations of the templates in the RT reaction mixture were 0.015 mM. The reaction mixture (50 μl) contained 50 mM Tris.HCl (pH 7.8), 5 mM dithiothreitol, 300 mM glutathione, 500 μM EDTA, 150 mM KCl, 5 mM MgCl2, 1.25 μg of bovine serum albumin, an appropriate concentration of labeled (tritiated) substrate dTTP, dCTP, or dATP (2 μCi/assay), a fixed concentration of the template/primer poly(A).oligo(dT) (0.015 mM), poly(I).oligo(dC) (0.015 mM), and poly(U).oligo(dA) (0.015 mM), 0.06% Triton X-100, 10 μl of inhibitor solution (containing various concentrations of the compounds), and 1 μl of the RT preparation. The reaction mixtures were incubated at 37° C. for 30 min, at which time 100 μl of yeast RNA (1 mg/ml) and 1 ml of Na4P2O7 (0.02 M) in trichloroacetic acid (5% v/v) were added. The solutions were kept on ice for 30 min, after which the acid-insoluble material was washed and analyzed for radioactivity.

[2] = chemical stability on storage / in solution; format: physicochemical
[3] = molecular target: HIV-RT (Human immunodeficiency virus type 1 group M subtype B, UniProt P04585); conditions: cell-free HIV-RT assay, literature, not a direct comparison; cited from earlier work
[4] = substrate [3H]dATP, template/primer poly rU.oligo dA, read-out: IC50, HIV-RT catalysed incorporation of [3H]dATP / polyrU.dA (converted)
[5] = substrate [3H]dCTP, template/primer poly rI.oligo dC, read-out: IC50, HIV-RT catalysed incorporation of [3H]dCTP / polyrI.dC (converted)
[6] = substrate [3H]dTTP, template/primer poly rA.oligo dT, read-out: IC50, HIV-RT catalysed incorporation of [3H]dTTP / polyrA.dT (converted)
[7] = IC50, HIV-RT catalysed incorporation of [3H]dATP / polyrU.dA, substrate [3H]dATP, template/primer poly rU.oligo dA
[8] = IC50, HIV-RT catalysed incorporation of [3H]dCTP / polyrI.dC, substrate [3H]dCTP, template/primer poly rI.oligo dC
[9] = IC50, HIV-RT catalysed incorporation of [3H]dTTP / polyrA.dT, substrate [3H]dTTP, template/primer poly rA.oligo dT

SMILES	melting point [°C]	IC50 [1, 4] [µM]	IC50 [1, 5] [µM]	IC50 [1, 6] [µM]	also measured
O=C(O)C(OC1CCC(n2cc(F)c(=O)[nH]c2=O)C1)P(=O)(O)O (stereo not drawn) (as salt: ammonium) [Compound 41, 2-((3-(5-fluoro-2,4-dioxo-3,4-dihydropyrimidin-1(2H)-yl)cyclopentyl)oxy)-2-phosphonoacetic acid]	243	–	–	–	–
Cc1cn([C@@H]2CC[C@H](OC(C(=O)O)P(=O)(O)O)C2)c(=O)[nH]c1=O (relative stereo) (as salt: ammonium) [Compound 11a, cis-1-{4-[Carboxy(phosphono)methoxy]cyclopentan-1-yl}thymine]	228 to 230	–	–	–	–
Nc1ncnc2c1ncn2[C@@H]1CC[C@H](OC(C(=O)O)P(=O)(O)O)C1 (relative stereo) (as salt: ammonium) [Compound 11d, cis-9-{4-[Carboxy(phosphono)methoxy]cyclopentan-1-yl}adenine]	236 to 240	–	–	–	–
COC(=O)C(O[C@H]1CC[C@@H](n2cc(C)c(=O)[nH]c2=O)C1)P(=O)(OC)OC (relative stereo) [26a]	130 to 133	–	–	–	–
Cc1cn([C@@H]2CC[C@H](OC(C(=O)O)P(=O)(O)O)C2)c(=O)[nH]c1=O (relative stereo) [Compound 11a, cis-1-{4-[Carboxy(phosphono)methoxy]cyclopentan-1-yl}thymine]	–	307	> 574	0.431	inhibition of incorporation of [3H]dATP in poly rU/oligo dA [1]: no marked, if any inhibition; inhibition of incorporation of [3H]dCTP in poly rI/oligo dC [1]: no marked, if any inhibition
O=C(O)C(O[C@H]1CC[C@@H](n2ccc(=O)[nH]c2=O)C1)P(=O)(O)O (relative stereo) [Compound 11b, cis-1-{4-[Carboxy(phosphono)methoxy]cyclopentan-1-yl}uracil]	–	221	> 598	3.89	inhibition of incorporation of [3H]dATP in poly rU/oligo dA [1]: no marked, if any inhibition; inhibition of incorporation of [3H]dCTP in poly rI/oligo dC [1]: no marked, if any inhibition
Nc1ccn([C@@H]2CC[C@H](OC(C(=O)O)P(=O)(O)O)C2)c(=O)n1 (relative stereo) [Compound 11c, cis-1-{4-[Carboxy(phosphono)methoxy]cyclopentan-1-yl}cytosine]	> 250	108	4.8	231	–
Nc1ncnc2c1ncn2[C@@H]1CC[C@H](OC(C(=O)O)P(=O)(O)O)C1 (relative stereo) [Compound 11d, cis-9-{4-[Carboxy(phosphono)methoxy]cyclopentan-1-yl}adenine]	–	–	–	–	degradation of stored sample ([2]; sample checked after 1 year): ~10%; IC50 [1, 7]: 0.274 µM; IC50 [1, 8]: > 560 µM; IC50 [1, 9]: ≥ 560 µM; inhibition of incorporation of [3H]dATP in poly rU/oligo dA [1]: potent inhibitor
COC(=O)C(O[C@H]1C=C[C@@H](n2ccc(N)nc2=O)C1)P(=O)(OC)OC (relative stereo) [Compound 24c, cis-1-{4-[(Methoxycarbonyl)dimethylphosphonomethoxy]cyclopent-2-en-1-yl}cytosine]	–	–	–	–	stability in deuterated chloroform ([2]; 36 hours at room temperature): Significant decomposition
COC(=O)C(O[C@H]1CC[C@@H](n2ccc(=O)[nH]c2=O)C1)P(=O)(OC)OC (relative stereo) [Compound 26b, cis-1-{4-[(methoxycarbonyl)dimethylphosphonomethoxy]cyclopentan-1-yl}uracil]	–	–	–	–	stability on storage at room temperature ([2]; room temperature, extended periods, neat, solid or in solution): no noticeable decomposition; purity by 1H NMR of aged sample ([2]; sample approximately 2 years old, stored at room temperature): 95%
COC(=O)C(O[C@H]1CC[C@@H](n2ccc(N)nc2=O)C1)P(=O)(OC)OC (relative stereo) [Compound 26c, cis-1-{4-[(Methoxycarbonyl)dimethylphosphonomethoxy]cyclopentan-1-yl}cytosine]	–	–	–	–	stability in deuterated chloroform ([2]; 16 hours at room temperature): Significant decomposition
COC(=O)C(O[C@H]1CC[C@@H](n2cnc3nc(N)nc(Cl)c32)C1)P(=O)(OC)OC (relative stereo) [Compound N-7-26e, cis-2-Amino-7-{4-[(methoxycarbonyl)dimethylphosphonornethoxy]cyclopentan-1-yl}-6-chloropurine]	–	–	–	–	stability in solution ([2]; within 4 days in solution): significant decomposition
Cc1cn([C@H]2CC[C@@H](OC(C(=O)O)P(=O)(O)O)C2)c(=O)[nH]c1=O (single isomer, unassigned; (+)) (as salt: ammonium) [(+)-11a]	225 to 227	–	–	–	–
Nc1ncnc2c1ncn2[C@H]1CC[C@@H](OC(C(=O)O)P(=O)(O)O)C1 (single isomer, unassigned; (+)) (as salt: ammonium) [(+)-11d]	234 to 239	–	–	–	–
COC(=O)C(O[C@H]1CC[C@@H](n2cc(C)c(=O)[nH]c2=O)C1)P(=O)(OC)OC (single isomer, unassigned; (+)) [(+)26a]	129 to 130	–	–	–	–
Cc1cn([C@H]2CC[C@@H](OC(C(=O)O)P(=O)(O)O)C2)c(=O)[nH]c1=O (single isomer, unassigned; (+)) [(+)-11a]	–	101	> 574	37.3	–
O=C(O)C(O[C@@H]1CC[C@H](n2ccc(=O)[nH]c2=O)C1)P(=O)(O)O (single isomer, unassigned; (+)) [(+)-11b]	–	168	> 598	120	–
Nc1ccn([C@H]2CC[C@@H](OC(C(=O)O)P(=O)(O)O)C2)c(=O)n1 (single isomer, unassigned; (+)) [(+)-11c]	> 250	54	402	23.4	–
Nc1ncnc2c1ncn2[C@H]1CC[C@@H](OC(C(=O)O)P(=O)(O)O)C1 (single isomer, unassigned; (+)) [(+)-11d]	–	33.6	> 560	487	–
Cc1cn([C@@H]2CC[C@H](OC(C(=O)O)P(=O)(O)O)C2)c(=O)[nH]c1=O (single isomer, unassigned; (-)) (as salt: ammonium) [(−)-11a]	229 to 230	–	–	–	–
Nc1ncnc2c1ncn2[C@@H]1CC[C@H](OC(C(=O)O)P(=O)(O)O)C1 (single isomer, unassigned; (-)) (as salt: ammonium) [(−)-11d]	237 to 241	–	–	–	–
COC(=O)C(O[C@@H]1CC[C@H](n2cc(C)c(=O)[nH]c2=O)C1)P(=O)(OC)OC (single isomer, unassigned; (-)) [(−)26a]	133 to 135	–	–	–	–
Cc1cn([C@@H]2CC[C@H](OC(C(=O)O)P(=O)(O)O)C2)c(=O)[nH]c1=O (single isomer, unassigned; (-)) [(−)-11a]	–	–	–	–	IC50 [1, 7]: 167 µM; IC50 [1, 8]: > 574 µM; IC50 [1, 9]: 0.431 µM; inhibition of HIV-1-RT-catalysed incorporation of [3H]dTTP in poly rA/oligo dT [1]: potent inhibitory activity
O=C(O)C(O[C@H]1CC[C@@H](n2ccc(=O)[nH]c2=O)C1)P(=O)(O)O (single isomer, unassigned; (-)) [(−)-11b]	–	233	> 598	3.29	inhibition of HIV-1-RT-catalysed incorporation of [3H]dTTP in poly rA/oligo dT [1]: potent inhibitory activity
Nc1ccn([C@@H]2CC[C@H](OC(C(=O)O)P(=O)(O)O)C2)c(=O)n1 (single isomer, unassigned; (-)) [(−)-11c]	–	51	4.5	180	inhibition of incorporation of [3H]dCTP in poly rI/oligo dC [1]: strong inhibition
Nc1ncnc2c1ncn2[C@@H]1CC[C@H](OC(C(=O)O)P(=O)(O)O)C1 (single isomer, unassigned; (-)) [(−)-11d]	–	0.202	> 560	> 560	–
Cc1cn([C@H]2C[C@H](N=[N+]=[N-])[C@@H](COP(=O)(O)OP(=O)(O)OP(=O)(O)O)O2)c(=O)[nH]c1=O [AZT-TP, reference compound]	–	–	–	–	IC50, HIV-RT catalysed incorporation of [3H]dTTP / polyrA.dT ([1]; substrate [3H]dTTP, template/primer poly rA.oligo dT): 0.035 ± 0.016 µg/mL
Cc1cn([C@H]2C[C@H](N=[N+]=[N-])[C@@H](CO)O2)c(=O)[nH]c1=O [AZT]	–	–	–	–	IC50 anti-HIV-RT activity reported by McClure [3]: 0.1 µg/mL (≈ 0.374 µM)
Nc1ncnc2c1ncn2[C@H]1CC[C@@H](COP(=O)(O)OP(=O)(O)OP(=O)(O)O)O1 [ddATP, reference compound]	–	–	–	–	IC50, HIV-RT catalysed incorporation of [3H]dATP / polyrU.dA ([1]; substrate [3H]dATP, template/primer poly rU.oligo dA): 0.55 ± 0.09 µg/mL
Nc1ccn([C@H]2CC[C@@H](COP(=O)(O)OP(=O)(O)OP(=O)(O)O)O2)c(=O)n1 [ddCTP, reference compound]	–	–	–	–	IC50, HIV-RT catalysed incorporation of [3H]dCTP / polyrI.dC ([1]; substrate [3H]dCTP, template/primer poly rI.oligo dC): 5.0 ± 0.4 µg/mL
